In experiment [1] the target is Tyrosine-protein kinase CSK (Homo sapiens, UniProt P41240). The experiment can be described thus: CSK Inhibition Assay. How it is done: Test compound was dissolved in DMSO at 10 mM. 45 uL of compound was transferred into a 384-well compound source plate (LABCYTE cat #P-05525) and serially diluted at 1:3 ratio to create a 11-point dilutions. The same volume of DMSO was adopted as high control. 20 nL of these compounds DMSO dilutes were dispensed into a new 384-well assay plate by Echo 550. […] 15 uL of kinase assay buffer containing CSK protein and substrate was transferred to assay plate and incubated at RT for 30 minutes. Kinase assay buffer supplemented with substrate peptides was employed as low control to monitor the background. 4 μM of ATP was prepared in kinase assay buffer and 5 μL of ATP solution was added to each well to start the reaction. The assay plate was incubated at 25° C. for 90 minutes and the reaction was stopped by adding 40 μL of 0.5 M EDTA.

The target in experiment [2] is Tyrosine-protein kinase Lck (Homo sapiens, UniProt P06239). The experiment can be described thus: LCK Inhibition Assay. How it is done:
Test compound was dissolved in DMSO at 10 mM. 45 uL of compound was transfer into a 384-well compound source plate (LABCYTE cat #P-05525) and serially diluted at 1:3 ratio to create a 11-point dilutions. The same volume of DMSO was adopted as high control. 20 nL of these compounds DMSO dilutes were dispensed into a new 384-well assay plate by Echo 550. LCK protein (0.50 nM, Cama Biosciences, cat #08-170), florescent labeled substrate FLPeptide4 (2 μM, PerkinElmer, cat #760348) was prepared in kinase assay buffer (50 mM HEPES (pH 7.5), 10 mM MgCl2, 0.01% Brij-35, 2 mM DTT and 0.005 mg/ml BSA). 15 uL of kinase assay buffer containing LCK protein and substrate was transferred to assay plate and incubate at RT for 30 minutes. Kinase assay buffer supplemented with substrate peptides was employed as low control to monitor the background. 400 μM ATP was prepared in kinase assay buffer and 5 μL of ATP solution was added to each well to start the reaction. The assay plate was incubated at 25° C. for 90 minutes and the reaction was stopped by adding 40 μL of 0.5 M EDTA.

Chain of Tyrosine-protein kinase CSK (P41240 whole entry): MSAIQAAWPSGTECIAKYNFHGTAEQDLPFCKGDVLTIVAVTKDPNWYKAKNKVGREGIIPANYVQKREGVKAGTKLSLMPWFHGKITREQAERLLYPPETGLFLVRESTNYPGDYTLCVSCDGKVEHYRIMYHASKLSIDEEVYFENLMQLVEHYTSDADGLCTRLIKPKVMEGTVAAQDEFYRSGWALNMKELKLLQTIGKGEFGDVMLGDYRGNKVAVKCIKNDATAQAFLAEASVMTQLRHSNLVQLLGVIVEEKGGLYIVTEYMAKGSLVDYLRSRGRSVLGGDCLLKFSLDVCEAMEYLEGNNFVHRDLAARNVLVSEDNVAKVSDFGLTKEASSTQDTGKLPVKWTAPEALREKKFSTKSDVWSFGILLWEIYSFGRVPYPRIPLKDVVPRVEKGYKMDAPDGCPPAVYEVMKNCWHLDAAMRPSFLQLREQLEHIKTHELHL
Chain of Tyrosine-protein kinase Lck (P06239 whole entry): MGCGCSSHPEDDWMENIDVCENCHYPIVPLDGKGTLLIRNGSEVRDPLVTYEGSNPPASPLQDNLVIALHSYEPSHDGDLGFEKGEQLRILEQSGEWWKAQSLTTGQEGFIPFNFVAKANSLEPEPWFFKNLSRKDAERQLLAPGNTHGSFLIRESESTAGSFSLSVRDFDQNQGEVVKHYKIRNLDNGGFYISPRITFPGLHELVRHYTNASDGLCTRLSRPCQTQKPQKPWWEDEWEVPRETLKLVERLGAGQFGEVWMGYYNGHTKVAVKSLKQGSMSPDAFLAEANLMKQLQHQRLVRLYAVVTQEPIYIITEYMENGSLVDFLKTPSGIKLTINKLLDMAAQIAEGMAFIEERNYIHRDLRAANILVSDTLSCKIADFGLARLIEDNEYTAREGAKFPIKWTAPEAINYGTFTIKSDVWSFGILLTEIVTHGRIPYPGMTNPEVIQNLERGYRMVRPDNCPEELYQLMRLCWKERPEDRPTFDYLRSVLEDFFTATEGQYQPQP

For orientation: IC50 means the concentration at which inhibition is half-maximal. Turning to `Nc1nccc(-c2sc(-c3ccccc3)nc2-c2cc(F)cc(NS(=O)(=O)c3c(F)cccc3F)c2)n1` [US12427146, Compound 20], the figures for the IC50 in experiment [1] and in experiment [2] were 132 nM and greater than 1000 nM, respectively.

`COc1cc(NS(=O)(=O)c2c(F)cccc2F)cc(-c2nc(-c3cncc(F)c3)sc2-c2ccnc(N)n2)c1` [US12427146, Compound 21] yielded an IC50 in experiment [1] of 25.2 nM.

Take `COc1cc(F)c(S(=O)(=O)Nc2cccc(-c3nc(-c4ccccc4)sc3-c3ccnc(N)n3)c2F)c(F)c1` [US12427146, Compound 22]: the IC50 in experiment [1] was 44.8 nM; in experiment [2] it was greater than 1000 nM.

For `COc1cc(NS(=O)(=O)c2c(F)cccc2F)c(F)c(-c2nc(-c3ccccc3)sc2-c2ccnc(N)n2)c1` [US12427146, Compound 23], the IC50 in experiment [1] was 4.1 nM; in experiment [2], less than 100 nM.

For `Nc1nccc(-c2sc(-c3ccccc3)nc2-c2cccc(NS(=O)(=O)c3ccc4c(c3)CNC4=O)c2F)n1` [US12427146, Compound 81], it took 4510 nM to reach half-maximal inhibition in experiment [1] (IC50).

As to `Nc1nccc(-c2sc(-c3ccccc3)nc2-c2cccc(NS(=O)(=O)c3ccc4c(c3)CNC4)c2F)n1` [US12427146, Compound 82], the IC50 in experiment [1] is greater than 10000 nM.

Values taken from BindingDB's records for patent US12427146 (Inventisbio Co., 2025).
